Four molecules from patent publication US9340555B2, “Compounds as tyrosine kinase modulators” (Allergan, Inc., priority 2009, dated 2016) can be followed below.

Data set [1] addresses VEGFR2 (Homo sapiens (Human), UniProt P35968). Put plainly: VEGF Stimulated Ca++ Signal In Vitro (Cellular VEGFR2, FLIPR). The class given is cell-based. The note with it: HUVEC, VEGF stimulation (5 ng/mL), intracellular calcium. Background: Calcium flux is commonly read through the fluorescence of an indicator in the cells.
Data set [2] concerns the target human VEGF receptor (VEGFR-2) (Homo sapiens (Human), UniProt P35968). Put plainly: VEGFR2 Kinase Assay (Enzymic VEGFR2). The class given is biochemical. The settings on record: His-VEGFR-2 cytoplasmic domain, 3.6 µM ATP.
Data set [3] addresses VEGFR1 (Homo sapiens (Human), UniProt P17948). Description: Enzymic VEGFR1. The class given is biochemical.
For data set [4], the system named is Rabbit Eye VEGF Permeability. Description: Rabbit Eye VEGF Permeability Model. The class given is in vivo. From the text: Rabbit Eye VEGF Permeability Model
Assay used was detailed by Jeffrey Edelman, etc in Exp. Eye. Res. 80 (2005), Pg 249-258.

Data set [5] addresses PDGFRβ (Homo sapiens (Human), UniProt P09619). Put plainly: Enzymic PDGFRβ. The class given is biochemical.

Broadly, the IC50 is the midpoint of a concentration-inhibition curve.

Sequence of VEGFR2 (P35968 20-1356): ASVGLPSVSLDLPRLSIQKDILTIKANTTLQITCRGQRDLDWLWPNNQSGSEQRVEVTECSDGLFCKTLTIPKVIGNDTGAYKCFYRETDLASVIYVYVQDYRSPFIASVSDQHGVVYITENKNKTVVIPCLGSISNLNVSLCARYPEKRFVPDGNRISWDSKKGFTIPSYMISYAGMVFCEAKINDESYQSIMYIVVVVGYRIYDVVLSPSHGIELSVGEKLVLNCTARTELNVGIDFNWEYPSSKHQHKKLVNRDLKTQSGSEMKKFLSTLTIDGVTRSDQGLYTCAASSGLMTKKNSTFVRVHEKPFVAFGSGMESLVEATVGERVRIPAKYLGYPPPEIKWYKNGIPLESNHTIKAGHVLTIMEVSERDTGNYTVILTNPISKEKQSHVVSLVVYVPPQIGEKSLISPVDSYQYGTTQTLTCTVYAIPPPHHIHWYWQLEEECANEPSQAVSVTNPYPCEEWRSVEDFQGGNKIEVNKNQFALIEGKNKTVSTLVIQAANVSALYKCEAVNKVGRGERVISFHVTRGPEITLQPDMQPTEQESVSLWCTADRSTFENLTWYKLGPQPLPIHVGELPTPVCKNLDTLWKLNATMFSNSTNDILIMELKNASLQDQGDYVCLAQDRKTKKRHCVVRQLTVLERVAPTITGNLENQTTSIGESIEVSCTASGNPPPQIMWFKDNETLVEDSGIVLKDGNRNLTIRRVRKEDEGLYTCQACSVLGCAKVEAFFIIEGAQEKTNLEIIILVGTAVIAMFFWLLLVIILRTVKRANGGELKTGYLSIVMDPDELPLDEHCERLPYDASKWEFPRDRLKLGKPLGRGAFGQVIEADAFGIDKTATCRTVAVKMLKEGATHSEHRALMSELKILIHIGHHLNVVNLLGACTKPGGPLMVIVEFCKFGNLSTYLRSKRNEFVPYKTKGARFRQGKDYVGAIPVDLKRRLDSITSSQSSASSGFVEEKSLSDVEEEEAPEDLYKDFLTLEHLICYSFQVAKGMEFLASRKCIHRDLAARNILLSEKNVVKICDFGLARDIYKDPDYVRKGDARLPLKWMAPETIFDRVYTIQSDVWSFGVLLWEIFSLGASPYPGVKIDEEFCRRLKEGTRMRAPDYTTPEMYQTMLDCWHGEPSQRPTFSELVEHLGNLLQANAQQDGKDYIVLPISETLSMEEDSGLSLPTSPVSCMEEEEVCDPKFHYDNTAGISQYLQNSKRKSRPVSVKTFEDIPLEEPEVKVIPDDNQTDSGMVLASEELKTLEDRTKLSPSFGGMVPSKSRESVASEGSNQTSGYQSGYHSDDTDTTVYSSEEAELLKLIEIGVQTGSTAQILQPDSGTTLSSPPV
Sequence of VEGFR1 (P17948 27-1338, species assumed): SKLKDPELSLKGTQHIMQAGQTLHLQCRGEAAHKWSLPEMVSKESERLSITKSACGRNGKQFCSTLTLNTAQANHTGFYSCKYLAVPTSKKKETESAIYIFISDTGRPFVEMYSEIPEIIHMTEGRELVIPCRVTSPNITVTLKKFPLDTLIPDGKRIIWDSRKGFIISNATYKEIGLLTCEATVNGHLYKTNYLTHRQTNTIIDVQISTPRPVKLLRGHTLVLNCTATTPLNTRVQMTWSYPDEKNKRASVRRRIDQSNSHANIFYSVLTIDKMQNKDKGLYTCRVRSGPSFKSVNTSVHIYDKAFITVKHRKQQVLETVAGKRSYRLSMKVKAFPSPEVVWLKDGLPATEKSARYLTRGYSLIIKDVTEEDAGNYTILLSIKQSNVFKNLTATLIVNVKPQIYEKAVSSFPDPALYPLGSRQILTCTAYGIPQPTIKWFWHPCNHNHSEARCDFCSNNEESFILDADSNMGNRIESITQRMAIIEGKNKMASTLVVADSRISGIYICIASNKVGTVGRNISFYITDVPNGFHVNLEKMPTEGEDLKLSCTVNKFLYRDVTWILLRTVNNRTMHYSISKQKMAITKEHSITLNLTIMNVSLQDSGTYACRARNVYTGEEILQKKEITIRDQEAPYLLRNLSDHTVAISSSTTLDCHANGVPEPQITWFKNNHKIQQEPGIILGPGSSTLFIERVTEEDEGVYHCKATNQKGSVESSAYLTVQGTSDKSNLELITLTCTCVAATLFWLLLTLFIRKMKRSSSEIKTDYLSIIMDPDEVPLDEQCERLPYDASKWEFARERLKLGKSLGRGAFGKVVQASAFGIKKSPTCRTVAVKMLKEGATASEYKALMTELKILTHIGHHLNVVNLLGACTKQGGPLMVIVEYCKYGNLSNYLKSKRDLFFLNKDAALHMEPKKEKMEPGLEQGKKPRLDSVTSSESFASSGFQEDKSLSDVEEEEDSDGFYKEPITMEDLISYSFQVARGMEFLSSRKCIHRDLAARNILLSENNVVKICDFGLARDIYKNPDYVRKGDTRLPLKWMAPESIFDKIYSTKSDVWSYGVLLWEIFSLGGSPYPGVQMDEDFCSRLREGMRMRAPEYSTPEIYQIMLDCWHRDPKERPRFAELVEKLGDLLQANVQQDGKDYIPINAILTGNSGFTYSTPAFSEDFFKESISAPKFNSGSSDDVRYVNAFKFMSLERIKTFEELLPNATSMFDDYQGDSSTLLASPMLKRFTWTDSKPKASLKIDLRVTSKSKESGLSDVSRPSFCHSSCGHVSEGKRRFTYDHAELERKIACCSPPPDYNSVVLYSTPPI
Sequence of human VEGF receptor (VEGFR-2) (P35968 786-1356): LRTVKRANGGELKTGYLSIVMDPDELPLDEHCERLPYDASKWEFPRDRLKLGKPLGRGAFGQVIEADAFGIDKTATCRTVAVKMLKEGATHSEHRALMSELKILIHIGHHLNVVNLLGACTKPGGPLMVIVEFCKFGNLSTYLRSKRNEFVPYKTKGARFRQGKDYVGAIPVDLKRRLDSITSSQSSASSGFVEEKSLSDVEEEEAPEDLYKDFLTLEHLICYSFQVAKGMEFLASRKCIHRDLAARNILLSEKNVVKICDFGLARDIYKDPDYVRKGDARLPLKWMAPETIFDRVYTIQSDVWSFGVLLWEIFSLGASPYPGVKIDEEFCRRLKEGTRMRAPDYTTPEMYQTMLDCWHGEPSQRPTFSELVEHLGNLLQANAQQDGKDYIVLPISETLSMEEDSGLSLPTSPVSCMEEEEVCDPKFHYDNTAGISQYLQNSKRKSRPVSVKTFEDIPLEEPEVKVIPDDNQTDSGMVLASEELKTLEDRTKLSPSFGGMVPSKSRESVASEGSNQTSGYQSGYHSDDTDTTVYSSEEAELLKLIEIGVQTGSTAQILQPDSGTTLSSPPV
Sequence of PDGFRβ (P09619 33-1106, species assumed): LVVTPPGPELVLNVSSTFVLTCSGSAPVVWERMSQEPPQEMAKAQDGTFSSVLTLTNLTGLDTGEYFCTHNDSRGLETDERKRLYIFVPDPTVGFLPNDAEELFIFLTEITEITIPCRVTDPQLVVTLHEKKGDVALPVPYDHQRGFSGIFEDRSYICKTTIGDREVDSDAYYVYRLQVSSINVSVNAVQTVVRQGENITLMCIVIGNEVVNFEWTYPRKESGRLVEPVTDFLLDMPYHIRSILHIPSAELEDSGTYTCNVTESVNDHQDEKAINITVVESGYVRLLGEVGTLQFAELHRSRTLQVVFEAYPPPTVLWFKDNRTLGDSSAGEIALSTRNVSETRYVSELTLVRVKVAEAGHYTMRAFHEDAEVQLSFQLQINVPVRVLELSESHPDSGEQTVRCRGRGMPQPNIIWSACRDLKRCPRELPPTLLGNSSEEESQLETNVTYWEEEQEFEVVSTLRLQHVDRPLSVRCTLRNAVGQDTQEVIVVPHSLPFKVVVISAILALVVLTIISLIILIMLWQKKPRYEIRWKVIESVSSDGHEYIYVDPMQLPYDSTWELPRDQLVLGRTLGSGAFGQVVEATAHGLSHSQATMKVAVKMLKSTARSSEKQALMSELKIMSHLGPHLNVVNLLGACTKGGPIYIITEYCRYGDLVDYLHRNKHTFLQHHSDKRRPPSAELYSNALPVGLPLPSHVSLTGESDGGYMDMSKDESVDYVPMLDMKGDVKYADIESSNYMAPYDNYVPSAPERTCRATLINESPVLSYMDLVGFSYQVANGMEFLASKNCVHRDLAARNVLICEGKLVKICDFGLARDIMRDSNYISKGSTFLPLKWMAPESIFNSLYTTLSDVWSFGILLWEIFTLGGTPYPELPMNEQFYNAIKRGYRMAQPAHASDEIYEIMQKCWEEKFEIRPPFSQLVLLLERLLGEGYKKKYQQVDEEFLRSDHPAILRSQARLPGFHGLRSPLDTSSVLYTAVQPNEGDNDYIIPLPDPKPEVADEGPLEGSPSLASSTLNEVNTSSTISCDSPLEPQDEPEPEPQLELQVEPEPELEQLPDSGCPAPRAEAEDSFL

Turning to `Cc1ccc(F)c(NC(=O)Nc2ccc(Oc3ccnc4cc(C(=O)O)sc34)cc2)c1` [Compound F2, 7-[4-({[(2-Fluoro-5-methylphenyl)amino]carbonyl}amino)phenoxy]thieno[3,2-b]pyridine-2-carboxylic acid], the IC50 in data set [1] came to 29 nM; in data set [2], 20 nM; in data set [3] it was 16 nM. Further, the “In Vivo Rabbit Eye VEGF Permeability” value in data set [4] is “efficacious”.
Turning to `COC(=O)CNCCCNC(=O)c1cc2nccc(Oc3ccc(NC(=O)Nc4cc(C)ccc4F)cc3)c2s1` [Example 18, methyl ({3-[({7-[4-({[(2-fluoro-5-methylphenyl)amino]carbonyl}amino)phenoxy]thieno[3,2-b]pyridin-2-yl}carbonyl)amino]propyl}amino)acetate], the IC50 worked out at 0.8 nM in data set [1], 3 nM in data set [2], 6 nM in data set [3] and 11 nM in data set [5]. Besides, in data set [4], the “In Vivo Rabbit Eye VEGF Permeability” value is reported as “Efficacious”.
As to `CCNC(=O)[C@H](CCC(=O)O)NC(=O)c1cc2nccc(Oc3ccc(NC(=O)Nc4cc(C)ccc4F)c(F)c3)c2s1` [Example 46, (4S)-5-(ethylamino)-4-[({7-[3-fluoro-4-({[(2-fluoro-5-methylphenyl)amino]carbonyl}amino)phenoxy]thieno[3,2-b]pyridin-2-yl}carbonyl)amino]-5-oxopentanoic acid], the IC50 in data set [1] came out at 328 nM; in data set [2], 19 nM. The “In Vivo Rabbit Eye VEGF Permeability” value in data set [4] was “Efficacious”.
Regarding `Cc1ccc(F)c(NC(=O)Nc2ccc(Oc3ccnc4cc(C(=O)NCCCN5CCOCC5)sc34)cc2F)c1` [Example 55, 7-[3-fluoro-4-({[(2-fluoro-5-methylphenyl)amino]carbonyl}amino)phenoxy]-N-(3-morpholin-4-ylpropyl)thieno[3,2-b]pyridine-2-carboxamide], the IC50 in data set [1] turned out to be 7 nM; in data set [2], 11 nM; in data set [3], 7 nM. Also, the “In Vivo Rabbit Eye VEGF Permeability” value in data set [4] is listed as “Efficacious”.
